What all share (test): growth of human tumour cells (NCI), 48 h
The test system of assay [1] is COLO 205 colon.
The subject of assay [2] is T-47D breast.
The test system of assay [3] is RPMI-8226 leukemia.
The subject of assay [4] is IGROV1 ovarian.
Assay [5] has as its system CAKI-1 renal.
Assay [6] has as its system SK-MEL-2 melanoma.
Assay [7] relates to 786-0 renal.
Assay [8] concerns RXF 393 renal.
Assay [9] relates to PC-3 prostate.
Assay [10] has as its system HCC-2998 colon.

Eight molecules from PubChem BioAssay (NCI) can be followed below.

Values joined by “and” are separate entries in the source; they are usually repeats but may differ in a detail not shown here. Equal values may be shown once.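 Growth conditions: 96-well plates. Treatment: test compound, 48 hours, 5 concentrations. Analysis: linear interpolation between bracketing concentrations; unreached endpoints set to highest concentration. Abbreviation: GI50, concentration required for 50% inhibition of growth. The concentration for full growth arrest is given as TGI.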

For the molecule `N#CCCN(CCC#N)c1ccc(C=Nc2ccc(F)cc2)cc1`, the TGI in assay [1] is 70300 nM; in assay [2] it was more than 100000 nM; in assay [3], more than 100000 nM; in assay [4] it was more than 100000 nM; in assay [5] it was more than 100000 nM; in [6], more than 32300 nM. Besides, the TGI in assay [7], in assay [8], in assay [9] and in assay [10] was more than 100000 nM each time.

For the molecule `O=C(OC[C@@H]1CO1)c1cccc2c(=O)c3ccccc3[nH]c12`, the GI50 is 246 nM in [1]; 890 nM in assay [2]; 330 nM in [3]; 329 nM in assay [4]; 200 nM in [5]; 251 nM in [6]. Besides, the GI50 in assay [7] was 349 nM; in [8] it was 207 nM; in assay [9], 381 nM; in assay [10], 312 nM. For the same molecule, the TGI was found to be 1410 nM in assay [1]; 5550 nM in [2]; 1840 nM in assay [3]; 1830 nM in [4]; 687 nM in assay [5]; 595 nM in [6]. Further, the TGI in assay [7] was 2690 nM; in assay [8] it was 515 nM; in assay [9], more than 21800 nM; in [10], 1250 nM.

On to `COc1ccc(/C=C\c2cc(OC)c(OC)c(OC)c2)c(NS(=O)(=O)c2ccc(C(C)(C)C)cc2)c1O`, for which the GI50 was 3320 nM in assay [1]; 16800 nM in assay [2]; 508 nM in [3]; 986 nM in assay [4]; 67.4 nM in assay [5]; 1220 nM in assay [6]. Besides, the GI50 is 490 nM in assay [7], 37.9 nM in assay [8], 369 nM in assay [9] and 1500 nM in assay [10]. Besides, the TGI in assay [1] was 12500 nM; in [2] it was 52300 nM; in assay [3] it was 25600 nM; in [4], 35800 nM; in assay [5], 18700 nM; in assay [6], 20200 nM. Besides, the TGI was determined as 14600 nM in assay [7], 16000 nM in [8], 17000 nM in assay [9] and 15300 nM in [10].

Regarding `C=C(Cl)[C@@](Cl)(CBr)CC[C@@H](Br)C(C)(C)Cl`, the GI50 in [1] was 776 nM; in [2], 775 nM; in assay [3], 68.8 nM; in [4], 14700 nM; in assay [5], 1220 nM; in assay [6], 552 nM. In addition, the GI50 was 73.3 nM in [7], 346 nM in [8], 280 nM in [9] and 1270 nM in assay [10]. For the same molecule, the TGI in [2] is 2980 nM and 797 nM; in [3], 1480 nM and 473 nM; in [4] it was 32200 nM and 32600 nM; in assay [5], 4900 nM and 1060 nM; in assay [6], 2720 nM and 1850 nM; in [7] it was 286 nM and 247 nM. The TGI is 2370 nM and 488 nM in assay [8]; 1420 nM and 1290 nM in assay [9]; 3120 nM and 1650 nM in assay [10].

Take `NC(N)=N/N=C(/c1ccccc1)c1ccccc1F`: the GI50 was 2160 nM in assay [1]; 12600 nM in assay [2]; 7600 nM in [3]; 2890 nM in assay [4]; 4260 nM in assay [5]; 12200 nM in assay [6]. Also, the GI50 in assay [7] is 4580 nM; in assay [8] it was 3000 nM; in [9], 4700 nM; in [10], 1390 nM. The TGI was 7010 nM in assay [1]; 41300 nM in assay [2]; more than 82100 nM in assay [3]; more than 50000 nM in assay [4]; 31400 nM in assay [5]; 36700 nM in assay [6]. The TGI in assay [7] is 21000 nM; in assay [8], 13900 nM; in assay [9], more than 57700 nM; in assay [10], 4730 nM.

In the case of `O=C(Oc1ccc2c(c1)CN(Cc1ccccc1)CO2)c1ccccc1`, the TGI came to 31000 nM in assay [1]; 70000 nM in [2]; 52700 nM in assay [3]; 27000 nM in [4]; 37800 nM in assay [5]; 50500 nM in assay [6]. Besides, the TGI in assay [7] came out at 30700 nM; in assay [8], 30400 nM; in assay [9] it was 29400 nM; in assay [10], 28200 nM.

As for `COc1cc(/C=C\c2cc(OC)c(OC)c(OC)c2)cc(NS(=O)(=O)c2ccc(Cl)cc2)c1OC`, the GI50 in assay [1] is 253 nM; in assay [2], 381 nM; in assay [3], 387 nM; in [4], 904 nM; in [5] it was 374 nM; in assay [6] it was 613 nM. The GI50 in [7] is 666 nM; in assay [8] it was 272 nM; in [9], 395 nM; in assay [10] it was 1980 nM. The TGI is 652 nM in [1]; more than 100000 nM in assay [2]; 33200 nM in [3]; more than 100000 nM in assay [4]; 50000 nM in assay [5]; 50700 nM in [6]. The TGI was more than 100000 nM in [7], 1240 nM in [8], more than 100000 nM in [9] and more than 100000 nM in assay [10].

For `CC1=C(CNO)C2=C(C)C3(CC3)[C@@](C)(O)C(=O)C2=C1`, the GI50 in [1] is 1090 nM; in assay [2], 1210 nM; in assay [3], 21100 nM; in assay [4], 898 nM; in [5] it was 1660 nM; in [6] it was 1980 nM. Also, the GI50 was 2530 nM in assay [7], 726 nM in assay [8], 1910 nM in assay [9] and 1500 nM in assay [10]. For the same molecule, the TGI was 3830 nM in assay [1]; 8470 nM in assay [2]; 72900 nM in assay [3]; 7000 nM in assay [4]; 7070 nM in assay [5]; 4910 nM in [6]. In addition, the TGI in assay [7] was 6880 nM; in [8], 2410 nM; in assay [9], 19600 nM; in assay [10], 3760 nM.
